# What was measured:
# [1] = test system: dairy cow; assay: Delta ITP at dry-off, IM study with the same total dose (comparative); type: in vivo; settings: same total dose by IM route, n=130
# [2] = test system: Prim'holstein lactating cows; assay: Cabergoline effect by intramammary (IMM) route on milk production, milking continuation context (Example 1); type: in vivo; settings: IMM 1.34 mg/quarter in all 4 quarters (5.4 mg/cow, ~7.5 μg/kg) after evening milking D4; n=5; printed as minus 6 L
# Description: The cabergoline composition is a solution comprising cabergoline with dimethyl sulfoxide and medium-chain triglycerides, as excipients.
# 5 Prim'holstein lactating cows were included in the study, with the following characteristics: • Multiparous: parity 2 to 4 • Daily milk yield (L): 17.4+/−2.8 • Days in milk (d): 251+/−51 • Body weight (kg): 686+/−29
# Cabergoline was administered as an oily solution as described above, with an intramammary cannula inserted into the teat canal and fitted to the tip of a syringe containing the solution. A volume of 10 mL was directly deposited into the udder cistern of each quarter.
# Cows were milked twice a day, morning and evening, at around 07 am and 05 pm respectively.
# Milk production (morning milking) was measured during the days before (baseline) and after treatment.
# The 5 cows were treated with a dose 1.34 mg/quarter in all 4 quarters (total dose 5.4 mg/cow, corresponding to ˜7.5 μg/kg when expressed according to kg body weight, after evening milking (D4), i.e. 15-20 minutes after the end of milking.
# [3] = test system: dairy cow; assay: Inter-teat perimeter (ITP, udder engorgement) at dry-off, IMM study (Example 2); type: in vivo
# Description: 10 lactating cows (9 Prim'holstein and 1 Brown Swiss) were included in this study. […] Animal had free access to water and hay throughout the study. Each cow was given 7 kg/day of an antibiotic free concentrate feed for lactating cow until D0 dry off. After dry-off each cow was given 7 kg/day of an antibiotic free concentrate for growing cattle. The composition of concentrate is given hereafter: At D0 dry-off, an abrupt milking cessation was performed. The inter-teat perimeter (ITP) was considered as a proxy of udder volume and engorgement, and was measured before treatment udder, both before and after milking, and then evenly after treatment until 9 days post-treatment.
# [4] = test system: dairy cow; assay: Previous IM dose-effect study of cabergoline on milk production reduction (comparative); type: in vivo; settings: extrapolation of the dose-effect relationship to an IM dose of 7.5 μg/kg
# Text: The obtained results are the following:
# [5] = Pharmacokinetics of cabergoline in plasma after IM administration, 5.6 mg/cow (comparative study); type: in vivo; settings: bovine, n=6, plasma
# [6] = test system: dairy cow; assay: Field-controlled study (n=106), IM route, decrease of milk production; type: in vivo
# Description: Extrapolation of the dose-effect relationship, with an IM dose of 7.5 μg/kg gave a predicted effect on milk production reduction of −43%.
# [7] = Blood calcium concentration after IMM cabergoline at dry-off (Example 2.3); type: in vivo, cow
# Text: (§1) 10 lactating cows (9 Prim'holstein and 1 Brown Swiss) were included in this study.
# No feed restriction was put in place within the 3 weeks preceding the D0 dry-off and after. Animal had free access to water and hay throughout the study. Each cow was given 7 kg/day of an antibiotic free concentrate feed for lactating cow until D0 dry off. After dry-off each cow was given 7 kg/day of an antibiotic free concentrate for growing cattle.
# [8] = Pharmacokinetics of cabergoline in plasma after IMM administration (Example 2.2); type: in vivo, cow; settings: female, Prim'holstein and Brown Swiss, bovine, 5.4 mg/udder, n=5, plasma
# Text: as §1
# [9] = Blood calcium concentration after IM cabergoline 5.6 mg/cow (previous studies); type: in vivo; settings: versus negative control group
# Description: Said studies were conducted in comparison versus a negative control group, and blood calcium decrease was monitored and well identified: A calcium decrease was observed as soon as 2 to 3 hours post-treatment, maximal between 6 and 12 hours and return to normal after 24 hours.
# It is important to note that, in the study of example 2, the benefit regarding a less decrease of blood calcium concentration was obtained, despite a less quantity of calcium supplied by food, when compared to the IM studies 1 and 2. In these last 2 IM studies, 150 g of calcium/day/cow was provided through a total or partial mixed ration, whereas in the IMM study of example 2 only 50 g of calcium was provided via the concentrate (7 kg/day/cow at 0.7% of Ca) and a remaining part via the hay given ad libidum. Although the exact quantity of Ca provided by the hay was unknown, it was surely less than in the 2 IM studies, because, • i) the content of calcium in the hay is generally lower than concentrates, usually around 0.3% • ii) the actual hay dry matter intake could be estimated around 13 to 15 kg for the cows included in example 2
compound,measurement,setting,value
"C=CCN1C[C@H](C(=O)N(CCCN(C)C)C(=O)NCC)C[C@@H]2c3cccc4[nH]cc(c34)C[C@H]21 [cabergoline, N-[3-(dimethylamino)propyl]-N-[(ethylamino)carbonyl]-6-(2-propenyl)-8g-ergoline-8-carboxamide]",Mean ΔITP at +24 h after treatment,[1],9.2 cm
same,"drop of milk production at the next morning milking (D5), mean",[2],6 L
same,ITP of treated cows versus control after dry-off,"[3]; IMM 1.34 mg/quarter in all 4 quarters, first 48 hours after treatment, FIG. 2",increased less than control
same,Mean ΔITP at +24 h after treatment,"[3]; IMM study, 1.34 mg/quarter in all 4 quarters at D0 dry-off, n=5",8.3 cm
same,"Mean ΔITP before/after milking, before treatment","[3]; IMM study, cabergoline group n=5, baseline before treatment",13.1 cm
same,predicted effect on milk production reduction,[4],−43%
same,AUC,"[5]; read-out: AUCo-inf, mean (sd)",2.49 ng·h/mL
same,Cmax,"[5]; read-out: Cmax, mean (sd)",0.15 ng/mL
same,MRT,"[5]; read-out: MRT, mean (sd)",22.7 h
same,Tmax,"[5]; read-out: Tmax, mean (sd)",3 h
same,"decrease of milk production, treated against negative controlled cows",[6],around −40%
same,"decrease of blood calcium concentration in comparison with control cows, mean","[7]; IMM 1.34 mg/quarter in all 4 quarters, +6 hours time point only",-0.2 mmol/L
same,blood calcium concentration change at other time points,"[7]; IMM, +3 h, +12 h, +24 h and onward",No decrease
same,AUC,"[8]; read-out: AUCo-inf, mean (sd)",4.75 ng·h/mL
same,Cmax,"[8]; read-out: Cmax, mean (sd)",0.114 ng/mL
same,MRT,"[8]; read-out: MRT, mean (sd)",36.3 h
same,Tmax,"[8]; read-out: Tmax, mean (sd)",8.4 h
same,time of return of blood calcium to normal,[9],> 24 h

# — US20230063100A1, “VETERINARY ANTI-PROLACTIN COMPOSITION FOR RUMINANTS USED BY INTRAMAMMARY ADMINISTRATION” (Ceva Santé Animale, priority 2020, published 2023)
